We go through 9 molecules from patent publication US8497074B2, “Granin proteins as markers of heart disease” (Universitetet I Oslo, priority 2008, dated 2013).

“Also recorded” adds a separate entry of the source.

Format in all cases: cell-based
Test [1] relates to neonatal rat cardiomyocytes. Put plainly: CgB gene expression in isolated neonatal cardiomyocytes after stimulation with signaling agents (qRT-PCR). As to the method:
(§1) Neonatal rat cardiomyocytes were isolated from neonatal (1-3 days) Wistar rats (Taconic, Skensved, Denmark) as previously reported. After 24 hours starvation, the cardiomyocytes were stimulated for 24 hours with the following agents; Forskolin [1 and 10 μM], norepinephrine [100 μM], endothelin [77 ng/ml] and angiotensin II [1 μM] (all Sigma, Europe), tumor necrosis factor-α (TNF-α) [10 ng/ml] (BioSource International Camarillo, Calif., USA), interleukin-1β (IL-1β) [10 ng/ml], monocyte chemoattractant protein-1 (MCP-1) [200 ng/ml], transforming growth factor-β (TGF-β) [10 ng/ml] (all R&D Systems, Minneapolis, Minn., USA), and a C-terminal CgB peptide—CgB312-323 [1, 10 and 100 ng/ml] (053-20, Phoenix Pharmaceuticals, Burlingame, Calif., USA).
(§2) Total RNA was isolated from neonatal rat cardiomyocytes according to the protocol (RNeasy mini kit, Qiagen, Valencia, Calif., USA). Along with lysis buffer, the Mixer Mill 300 System (RETSCH, Haan, Germany) and stainless steel beads (Qiagen, Hilden, Germany) were used for mechanical disruption of the cells. RNA concentrations and quality were assessed as earlier described with the NanoDrop system and an Agilent BioAnalyzer 2100. Reverse transcription reactions were performed with iScript Select cDNA Synthesis Kit (Bio-Rad Laboratories, Inc., Hercules, Calif., USA). Gene expression was determined by qRT-PCR with pre-made TaqMan Gene Expression Assays from Applied Biosystems: CgB (Rn01514853—1), BNP (Rn00580641—1), Rp14 (Rn00821091—1). Gene expression in stimulated cells is presented as change vs. gene expression in PBS stimulated cells (normalized vs. control). All samples were run in triplicate and Rp14 gene expression was used as an internal control.
as §1, with “factor-α(TNF-α)” for “factor-α (TNF-α)”, “peptide—CgB312-323 and secretoneurin” for “peptide—CgB312-323”, “(053-20, 047-95,” for “(053-20,”
as §2, with “Biosystems: SgII (Rn01400686—1),” for “Biosystems:”
Background: Quantitative PCR measures a nucleic acid by following its amplification.

The subject of test [2] is neonatal rat cardiomyocytes. Put plainly: SgII gene expression in isolated neonatal cardiomyocytes after stimulation with signaling agents (qRT-PCR). To be noted: stimulated for 24 hours, vs. PBS stimulated cells. As to the method: as §1, with “factor-α(TNF-α)” for “factor-α (TNF-α)”, “peptide—CgB312-323 and secretoneurin” for “peptide—CgB312-323”, “(053-20, 047-95,” for “(053-20,”
as §2, with “Biosystems: SgII (Rn01400686—1),” for “Biosystems:”

In test [3] the test system is neonatal rat cardiomyocytes. Kind of test: BNP gene expression in isolated neonatal cardiomyocytes after stimulation with signaling agents (qRT-PCR). As to conditions: stimulated for 24 hours, vs. PBS stimulated cells. How it is done: as §1, §2
as §1, with “factor-α(TNF-α)” for “factor-α (TNF-α)”, “peptide—CgB312-323 and secretoneurin” for “peptide—CgB312-323”, “(053-20, 047-95,” for “(053-20,”
as §2, with “Biosystems: SgII (Rn01400686—1),” for “Biosystems:”

The mark [4] stands for this setting: neonatal rat cardiomyocytes, stimulated for 24 hours, vs. PBS stimulated cells.

In the case of `C=C[C@@]1(C)CC(=O)[C@]2(O)[C@@]3(C)[C@@H](O)CCC(C)(C)[C@@H]3[C@H](O)[C@H](OC(C)=O)[C@@]2(C)O1` [Forskolin], the “CgB production (gene expression) increase” value in test [1] (setting [4]) worked out at 60%. The “SgII gene expression increase” value in test [2] stood at 40%.

`CC[C@H](C)[C@H](NC(=O)[C@H](CC(=O)O)NC(=O)[C@H](CC(C)C)NC(=O)[C@H](Cc1c[nH]cn1)NC(=O)[C@@H]1CSSC[C@H](N)C(=O)N[C@@H](CO)C(=O)N[C@H]2CSSC[C@H](NC(=O)[C@H](CCC(=O)O)NC(=O)[C@H](CCCCN)NC(=O)[C@H](CC(=O)O)NC(=O)[C@H](CCSC)NC(=O)[C@H](CC(C)C)NC(=O)[C@H](CO)NC(=O)[C@H](CO)NC2=O)C(=O)N[C@@H](C(C)C)C(=O)N[C@@H](Cc2ccc(O)cc2)C(=O)N[C@@H](Cc2ccccc2)C(=O)N1)C(=O)N[C@H](C(=O)N[C@@H](Cc1c[nH]c2ccccc12)C(=O)O)[C@@H](C)CC` [endothelin]: the “change in CgB gene expression (in words)” value in test [1] (setting [4]) is “no significant change”. Moreover, the “change in BNP gene expression (in words)” value in test [3] is “increased”. Further, the “change in SgII gene expression (in words)” value in test [2] is on record as “no significant change”.

For `NC[C@H](O)c1ccc(O)c(O)c1` [norepinephrine], in test [1] (isolated cardiomyocytes, change vs. PBS stimulated cells (FIG. 8A)), the “CgB gene expression, times upregulated” value is recorded as 3 ×. Moreover, in test [1] (neonatal rat cardiomyocytes, stimulated for 24 hours, change vs. PBS stimulated cells), the “CgB gene expression, fold increase” value came to 3 fold. Further, the “change in CgB gene expression (in words)” value in test [1] (neonatal rat cardiomyocytes, stimulated for 24 hours, vs. PBS stimulated cells, listed as NA) is “upregulated; also recorded: potent agents for upregulating”. The “change in BNP gene expression (in words)” value in test [3] (listed as NA) is listed as “increased; also recorded: most powerful stimulus; also recorded: potent agents for upregulating”. Besides, the “SgII gene expression increase” value in test [2] was 55%. Besides, the “change in SgII gene expression (in words)” value in test [2] (listed as NA) is on record as “potent agents for upregulating; also recorded: increased”.

Consider “angiotensin II (DRVYIHPF; Angiotensin-2; UniProt P01019 25-32, looked up)”, for which the “change in CgB gene expression (in words)” value is on record as “significantly upregulated” in test [1] (setting [4]); “upregulated” in test [1] (neonatal rat cardiomyocytes, stimulated for 24 hours, vs. PBS stimulated cells, listed as AT II); “significantly upregulated” in test [1] (neonatal rat cardiomyocytes, stimulated for 24 hours, vs. PBS stimulated cells, listed as Angiotensin II). In addition, in test [3], the “change in BNP gene expression (in words)” value is given as “increased”. The “change in SgII gene expression (in words)” value in test [2] was “no significant change”.

With interleukin-1β, the “change in CgB gene expression (in words)” value in test [1] (setting [4]) was “no significant change”. Also, the “change in SgII gene expression (in words)” value in test [2] is on record as “no significant change”.

Take monocyte chemoattractant protein-1: the “change in CgB gene expression (in words)” value is reported as “significantly upregulated” in test [1] (setting [4]) and “upregulated” in test [1] (neonatal rat cardiomyocytes, stimulated for 24 hours, vs. PBS stimulated cells, listed as MCP-1). Also, the “change in SgII gene expression (in words)” value in test [2] was “no significant change”.

Regarding “secretoneurin: 33 amino acid peptide fragment of SgII, 047-95, Phoenix Pharmaceuticals (TNEIVEEQYTPQSLATLESVFQELGKLTGPNNQ; Secretoneurin; UniProt P13521 182-214, looked up)”, in test [1] (setting [4]), the “change in CgB gene expression (in words)” value is reported as “did not affect”. Also, the “change in BNP gene expression (in words)” value in test [3] is reported as “did not affect”. The “change in SgII gene expression (in words)” value in test [2] is given as “did not affect”; in test [2] (listed as SgII) it was “no significant change”.

For the molecule transforming growth factor-β, the “change in CgB gene expression (in words)” value in test [1] (setting [4]) is on record as “significantly upregulated”; in test [1] (neonatal rat cardiomyocytes, stimulated for 24 hours, vs. PBS stimulated cells, listed as TGF-β) it was “upregulated; also recorded: potent agents for upregulating”. Further, the “change in BNP gene expression (in words)” value in test [3] (listed as TGF-β) is “increased; also recorded: potent agents for upregulating”. In addition, the “SgII gene expression increase” value in test [2] was 85%. The “change in SgII gene expression (in words)” value in test [2] (listed as TGF-β) is on record as “potent agents for upregulating; also recorded: increased”.

On to tumor necrosis factor-α, for which, in test [1] (setting [4]), the “change in CgB gene expression (in words)” value is listed as “no significant change”. Also, in test [2], the “change in SgII gene expression (in words)” value is “no significant change”.
